Nine compounds from PubChem BioAssay (NCI) can be followed below.

Some test systems named below: SK-OV-3 ovarian; NCI-H460 lung; UACC-257 melanoma; KM12 colon; HOP-92 NSCLC; SF-268 CNS; HL-60(TB) leukemia; A549 NSCLC; MALME-3M melanoma; UO-31 renal.
Common to all, as to assay: NCI anticancer screen, dose series, 48 h

Several values for one entry are separate records, joined by “and”; a condition that tells them apart may be missing. Identical values can stand only once.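 Each compound was tested at five concentrations against cells in 96-well plates for 48 hours. At the GI50, growth is halved. TGI is the concentration that stops growth completely.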

As to `CCC1=C[C@@H]2CN(C1)Cc1c([nH]c3ccccc13)[C@@](C(=O)OC)(c1cc3c(cc1OC)N(C)[C@H]1[C@@](O)(C(=O)OC)[C@H](OC(C)=O)[C@]4(CC)[C@@H]5C[C@@H]5CN5CC[C@]31[C@@H]54)C2`, the GI50 with SK-OV-3 ovarian is less than 5 nM; with NCI-H460 lung it was less than 5 nM; in the experiment with KM12 colon, less than 5 nM; with HOP-92 NSCLC, less than 5 nM; in the experiment on SF-268 CNS it was < 5 nM and 15.1 nM; in the experiment with HL-60(TB) leukemia, less than 5 nM. Further, the GI50 in the experiment with A549 NSCLC and in the experiment on MALME-3M melanoma was less than 5 nM throughout. Further, the TGI with NCI-H460 lung is 5.05 µM and 11.6 µM; in the experiment on UACC-257 melanoma, 7.53 µM and 15.6 µM; in the experiment with KM12 colon it was 6.54 µM and 11.1 µM; in the experiment on HOP-92 NSCLC, 0.353 µM; in the experiment with SF-268 CNS, 8.94 µM and 12.8 µM; in the experiment on A549 NSCLC, 5.95 µM and 12.2 µM. The TGI is 1.29 µM with MALME-3M melanoma; 7.7 µM and 12.6 µM in the experiment with UO-31 renal.
In the case of `Cc1nc(Nc2n[nH]c3c2CN(C(=O)N[C@H](CN(C)C)c2ccccc2)C3(C)C)c2sccc2n1`, the GI50 was 317 nM and 205 nM with SK-OV-3 ovarian; 13.2 nM and 22.3 nM with NCI-H460 lung; less than 10.6 nM with UACC-257 melanoma; 49.3 nM and 73.9 nM in the experiment on KM12 colon; 177 nM and 427 nM in the experiment with SF-268 CNS; 18.9 nM and 56.4 nM with HL-60(TB) leukemia. For the same compound, the GI50 with A549 NSCLC is 91.1 nM and 291 nM; with MALME-3M melanoma it was 47.3 nM and < 10 nM; with UO-31 renal, 229 nM and 1280 nM. For the same compound, the TGI in the experiment on SK-OV-3 ovarian was > 5.94 µM and 14.7 µM; in the experiment with NCI-H460 lung it was > 4.07 µM and 10.7 µM; with UACC-257 melanoma it was 1.27 µM and 4.34 µM; in the experiment with KM12 colon it was > 4.68 µM and 4.45 µM; with HOP-92 NSCLC it was 2.7 µM and 0.47 µM; with SF-268 CNS it was > 4.61 µM and 5.23 µM. The TGI is 2.03 µM and 3.43 µM in the experiment with HL-60(TB) leukemia; greater than 50.9 µM in the experiment with A549 NSCLC; 0.497 µM and 2.44 µM in the experiment on MALME-3M melanoma; > 4.67 µM and 42.3 µM with UO-31 renal.
Regarding `C#CCC(N)(CO)C(=O)O` (stereo not given), the TGI in the experiment with SK-OV-3 ovarian, in the experiment with NCI-H460 lung, in the experiment on UACC-257 melanoma, with KM12 colon, in the experiment on HOP-92 NSCLC and with SF-268 CNS was greater than 100 µM in each case. The TGI in the experiment with HL-60(TB) leukemia, with A549 NSCLC, in the experiment on MALME-3M melanoma and in the experiment with UO-31 renal was greater than 100 µM each time.
Consider `CC(=O)OC1COC(n2c(=S)n(-c3ccccc3)c(=O)c3cc(Br)ccc32)C(OC(C)=O)C1OC(C)=O` (stereo not given), for which the TGI was greater than 100 µM with SK-OV-3 ovarian; greater than 100 µM in the experiment on NCI-H460 lung; greater than 100 µM in the experiment with UACC-257 melanoma; greater than 100 µM in the experiment with KM12 colon; 55.5 µM in the experiment with HOP-92 NSCLC; greater than 100 µM with SF-268 CNS. The TGI in the experiment with HL-60(TB) leukemia, with A549 NSCLC, in the experiment with MALME-3M melanoma and with UO-31 renal was greater than 100 µM throughout.
For the compound `CC1=C(C(=O)Nc2ccccc2C)C(/C=C/c2ccccc2)C(C(=O)Nc2ccccc2C)=C(C)N1`, the TGI with SK-OV-3 ovarian, in the experiment with NCI-H460 lung, in the experiment with UACC-257 melanoma, in the experiment with KM12 colon, in the experiment with HOP-92 NSCLC and with SF-268 CNS was greater than 100 µM each time. The TGI in the experiment with HL-60(TB) leukemia, with A549 NSCLC, with MALME-3M melanoma and in the experiment with UO-31 renal was greater than 100 µM throughout.
For the compound `O=S(=O)(CCOCc1ccc(-c2ccc3ncnc(Nc4ccc(OCc5cccc(F)c5)c(Cl)c4)c3c2)o1)c1ccccc1`, the GI50 in the experiment on SK-OV-3 ovarian is 143 nM; in the experiment with NCI-H460 lung, greater than 25000 nM; in the experiment on UACC-257 melanoma, greater than 25000 nM; in the experiment on KM12 colon, greater than 25000 nM; with HOP-92 NSCLC it was greater than 25000 nM; in the experiment with SF-268 CNS it was greater than 25000 nM. Further, the GI50 in the experiment with HL-60(TB) leukemia is greater than 25000 nM; with A549 NSCLC it was greater than 25000 nM; in the experiment on MALME-3M melanoma it was greater than 25000 nM; with UO-31 renal it was greater than 7540 nM. Besides, the TGI in the experiment on SK-OV-3 ovarian, with NCI-H460 lung, in the experiment with UACC-257 melanoma, with KM12 colon, in the experiment on HOP-92 NSCLC and in the experiment with SF-268 CNS was greater than 25 µM in each case. Besides, the TGI in the experiment on HL-60(TB) leukemia, with A549 NSCLC, in the experiment on MALME-3M melanoma and with UO-31 renal was greater than 25 µM each time.
In the case of `CNC(=O)c1cc2c(Oc3ccc(NC(=O)C4(C(=O)Nc5ccc(F)cc5)CC4)cc3)ccnc2cc1OC`, the GI50 in the experiment on SK-OV-3 ovarian was 2940 nM; in the experiment on NCI-H460 lung it was 3880 nM; in the experiment with UACC-257 melanoma, 3120 nM; with KM12 colon, 196 nM; with HOP-92 NSCLC it was 1030 nM; with SF-268 CNS, 3060 nM. Moreover, the GI50 in the experiment with HL-60(TB) leukemia is 2630 nM; in the experiment on A549 NSCLC it was 2820 nM; with MALME-3M melanoma it was 1660 nM; in the experiment with UO-31 renal, 1780 nM. Further, the TGI in the experiment on SK-OV-3 ovarian is 9.33 µM; in the experiment with NCI-H460 lung, greater than 100 µM; in the experiment on UACC-257 melanoma, greater than 100 µM; in the experiment with KM12 colon it was greater than 100 µM; in the experiment with HOP-92 NSCLC, 4.75 µM; with SF-268 CNS, greater than 100 µM. In addition, the TGI in the experiment with HL-60(TB) leukemia came to 6.63 µM; in the experiment with A549 NSCLC, 16.9 µM; in the experiment on MALME-3M melanoma, 9.45 µM; in the experiment with UO-31 renal, 6.25 µM.
In the case of `O=S1(=O)NCCCN1CCNc1nccc(-c2c(-c3cccc(O)c3)nc3sccn23)n1`, the GI50 was 5930 nM in the experiment on SK-OV-3 ovarian; 21500 nM with NCI-H460 lung; 2990 nM with UACC-257 melanoma; 33300 nM in the experiment with KM12 colon; 27300 nM with HOP-92 NSCLC; 24400 nM with SF-268 CNS. The GI50 with HL-60(TB) leukemia was 23000 nM; with A549 NSCLC it was 42500 nM; in the experiment with MALME-3M melanoma it was 108 nM; in the experiment on UO-31 renal, 37000 nM. The TGI in the experiment on SK-OV-3 ovarian was 63.8 µM; in the experiment with NCI-H460 lung, greater than 100 µM; with UACC-257 melanoma, greater than 100 µM; in the experiment with KM12 colon, greater than 90.4 µM; with HOP-92 NSCLC, greater than 93.5 µM; with SF-268 CNS, greater than 100 µM. The TGI is 60 µM in the experiment on HL-60(TB) leukemia, greater than 100 µM with A549 NSCLC, 3.26 µM in the experiment with MALME-3M melanoma and greater than 96.6 µM in the experiment on UO-31 renal.
Regarding `O=C(c1ccc2ccccc2c1)c1c(C(F)(F)F)n([O-])c2ccc(Cl)cc2[n+]1=O`, the GI50 in the experiment with SK-OV-3 ovarian is 1750 nM; in the experiment with NCI-H460 lung, 1750 nM; in the experiment on UACC-257 melanoma it was 1680 nM; in the experiment on KM12 colon it was 1080 nM; with HOP-92 NSCLC it was 518 nM; in the experiment on SF-268 CNS it was 1040 nM. Further, the GI50 in the experiment on HL-60(TB) leukemia is 1590 nM; with A549 NSCLC, 1710 nM; with MALME-3M melanoma, 1590 nM; in the experiment on UO-31 renal, 1290 nM. Besides, the TGI was determined as 3.13 µM in the experiment with SK-OV-3 ovarian; 3.34 µM with NCI-H460 lung; 3.13 µM in the experiment on UACC-257 melanoma; 2.39 µM with KM12 colon; 2.03 µM with HOP-92 NSCLC; 2.33 µM with SF-268 CNS. In addition, the TGI in the experiment on HL-60(TB) leukemia was found to be 3.29 µM; in the experiment on A549 NSCLC it was 3.21 µM; in the experiment with MALME-3M melanoma, 3.2 µM; with UO-31 renal, 2.55 µM.
